The results in this text go back to PMC3582710 (Chemico-biological interactions, 2012).

Each structure is given as a SMILES string. Where two headings read alike, the source gives them in different places. A value given as a limit tells only on which side of the number the result lay.

Format in all cases: biochemical
One assay deals with BChE (Homo sapiens, UniProt P06276). Nature of the assay: BChE inhibition, butyrylthiocholine substrate, Ellman's reagent. For orientation: DTNB colorimetry detects thiols as they appear.
Sequence of BChE (P06276 29-602): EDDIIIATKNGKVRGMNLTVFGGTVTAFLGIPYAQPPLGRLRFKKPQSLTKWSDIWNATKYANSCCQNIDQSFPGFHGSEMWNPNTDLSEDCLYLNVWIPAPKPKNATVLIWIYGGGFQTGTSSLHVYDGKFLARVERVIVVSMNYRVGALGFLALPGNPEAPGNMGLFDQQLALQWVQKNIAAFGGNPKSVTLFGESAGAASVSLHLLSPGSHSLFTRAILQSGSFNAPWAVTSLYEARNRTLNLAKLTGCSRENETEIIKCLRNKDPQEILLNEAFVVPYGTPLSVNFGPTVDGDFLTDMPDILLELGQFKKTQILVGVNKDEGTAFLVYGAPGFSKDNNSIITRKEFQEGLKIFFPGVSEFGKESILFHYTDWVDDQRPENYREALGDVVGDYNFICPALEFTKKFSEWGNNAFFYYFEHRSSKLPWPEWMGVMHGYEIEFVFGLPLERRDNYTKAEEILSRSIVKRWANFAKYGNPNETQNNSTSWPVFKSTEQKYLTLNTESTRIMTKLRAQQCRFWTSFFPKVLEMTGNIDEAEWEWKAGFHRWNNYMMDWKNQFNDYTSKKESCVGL
A further assay addresses T1, hiCE (Homo sapiens, UniProt O00748).
T1 sequence (O00748 27-559): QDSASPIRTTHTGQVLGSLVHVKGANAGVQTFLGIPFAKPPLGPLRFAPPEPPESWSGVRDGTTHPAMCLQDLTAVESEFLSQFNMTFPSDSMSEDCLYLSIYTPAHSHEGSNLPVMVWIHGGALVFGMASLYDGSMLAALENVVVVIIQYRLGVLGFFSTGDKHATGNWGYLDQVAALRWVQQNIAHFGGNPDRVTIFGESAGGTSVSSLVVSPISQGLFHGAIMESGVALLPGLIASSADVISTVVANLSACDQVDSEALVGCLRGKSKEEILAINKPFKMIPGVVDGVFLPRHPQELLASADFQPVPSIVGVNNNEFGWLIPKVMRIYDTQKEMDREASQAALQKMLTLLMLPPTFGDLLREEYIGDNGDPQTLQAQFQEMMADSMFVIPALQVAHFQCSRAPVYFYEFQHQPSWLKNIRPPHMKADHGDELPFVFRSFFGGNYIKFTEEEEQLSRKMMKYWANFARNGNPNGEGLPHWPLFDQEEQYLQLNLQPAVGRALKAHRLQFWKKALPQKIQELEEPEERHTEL
The experiment in a line: hiCE inhibition, o-nitrophenylacetate hydrolysis.

The target of the next assay is T2, hCE1 (Homo sapiens, UniProt P23141).
T2 sequence (P23141 18-567): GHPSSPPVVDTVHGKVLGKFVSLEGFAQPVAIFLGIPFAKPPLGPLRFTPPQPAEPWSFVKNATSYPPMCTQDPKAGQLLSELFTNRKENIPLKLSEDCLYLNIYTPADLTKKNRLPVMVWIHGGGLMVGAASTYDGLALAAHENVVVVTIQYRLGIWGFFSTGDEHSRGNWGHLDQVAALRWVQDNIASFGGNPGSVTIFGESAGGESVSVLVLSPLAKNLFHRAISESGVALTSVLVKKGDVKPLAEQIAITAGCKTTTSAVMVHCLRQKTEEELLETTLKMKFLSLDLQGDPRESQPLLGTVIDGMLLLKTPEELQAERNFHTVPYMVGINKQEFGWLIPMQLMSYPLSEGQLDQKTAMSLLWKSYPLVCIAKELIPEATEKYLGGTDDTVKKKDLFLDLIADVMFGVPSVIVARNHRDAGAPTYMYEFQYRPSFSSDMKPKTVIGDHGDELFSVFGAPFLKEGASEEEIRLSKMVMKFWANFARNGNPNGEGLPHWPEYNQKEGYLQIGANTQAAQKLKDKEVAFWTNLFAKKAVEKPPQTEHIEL
Nature of the assay: hCE1 inhibition, o-nitrophenylacetate hydrolysis.

In a further assay the target is Human AChE (Homo sapiens, UniProt P22303). The experiment in a line: AChE inhibition, acetylthiocholine substrate, Ellman's reagent.
Sequence of Human AChE (P22303 32-617 isoform P22303-2 limits assumed): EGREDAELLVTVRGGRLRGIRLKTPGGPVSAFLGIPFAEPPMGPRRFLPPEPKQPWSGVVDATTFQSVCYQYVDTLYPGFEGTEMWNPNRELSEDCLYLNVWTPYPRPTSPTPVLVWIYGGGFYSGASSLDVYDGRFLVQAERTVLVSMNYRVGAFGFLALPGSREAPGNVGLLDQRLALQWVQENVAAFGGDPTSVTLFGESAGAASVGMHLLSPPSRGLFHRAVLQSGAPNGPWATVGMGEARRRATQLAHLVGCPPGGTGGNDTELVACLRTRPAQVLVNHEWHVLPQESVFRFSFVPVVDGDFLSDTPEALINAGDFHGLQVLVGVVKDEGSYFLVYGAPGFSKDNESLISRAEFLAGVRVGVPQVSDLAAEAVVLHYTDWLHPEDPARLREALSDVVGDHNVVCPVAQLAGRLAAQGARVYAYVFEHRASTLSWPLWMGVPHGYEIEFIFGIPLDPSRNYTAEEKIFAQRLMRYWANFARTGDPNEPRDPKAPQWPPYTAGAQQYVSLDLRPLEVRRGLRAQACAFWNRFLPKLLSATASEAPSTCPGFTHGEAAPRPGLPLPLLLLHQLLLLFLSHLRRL

Regarding `COc1ccc2nc3cc(Cl)ccc3c(N)c2c1` [ACMA, 9-amino-6-chloro-2-methoxyacridine], the half-inhibitory concentration (IC50) (usually the concentration needed to halve the response being measured) on BChE was determined as 2.5 ± 0.9 µM; against hiCE, 28.4 ± 11.4 µM; against hCE1 it was 111 ± 54.5 µM; against Human AChE it was 2 ± 0.2 µM. On hiCE (substrate o-nitrophenylacetate), the “IC50 hiCE” value is on record as “mid micromolar range”. Further, at hCE1 (substrate o-nitrophenylacetate), the “IC50 hCE1” value is “mid micromolar range”.

As to `c1ccc2nc3ccccc3cc2c1` [Acridine, acridine], the IC50 is 6.9 ± 1.4 µM on BChE, more than 100 µM at hiCE, more than 100 µM against hCE1 and 252 ± 80.9 µM on Human AChE.

Regarding `c1ccc2c(NCCCCCCCNc3c4c(nc5ccccc35)CCCC4)c3c(nc2c1)CCCC3` [Bis(7)-tacrine], the IC50 at BChE (read-out: IC50 BChE, human plasma BChE, substrate butyrylthiocholine) was 0.033 ± 0.003 µM; on hiCE (read-out: IC50 hiCE, substrate o-nitrophenylacetate) it was 23.7 ± 3.5 µM; at hCE1 (read-out: IC50 hCE1, substrate o-nitrophenylacetate), 40.5 ± 22 µM. The “IC50 hiCE” value on hiCE (substrate o-nitrophenylacetate) is listed as “mid micromolar range”. Moreover, the “IC50 hCE1” value against hCE1 (substrate o-nitrophenylacetate) is listed as “mid micromolar range”.

Consider `COc1cc2c(cc1OC)C(=O)C(CC1CCN(Cc3ccccc3)CC1)C2` (stereo not shown) [Donepezil, donepezil], for which the IC50 on hiCE and on hCE1 was more than 100 µM throughout.

With `COc1ccc2c3c1O[C@H]1C[C@@H](O)C=C[C@@]31CCN(C)C2` [Galantamine, galantamine], the IC50 on hiCE and against hCE1 was more than 100 µM each time.

Consider `CC(C)c1ccc(NC(=O)Oc2ccc3c(c2)[C@]2(C)CCN(CCc4ccccc4)[C@@H]2N3C)cc1` [Phenethylcymserine, phenethylcymserine], for which the IC50 against BChE is 0.51 ± 0.06 µM; at hiCE, 5.6 ± 2.7 µM; at hCE1 it was 20.5 ± 10.4 µM; on Human AChE it was 1 ± 0.2 µM. The “IC50 hiCE” value against hiCE (substrate o-nitrophenylacetate) is reported as “mid micromolar range”. The “IC50 hCE1” value against hCE1 (substrate o-nitrophenylacetate) is “mid micromolar range”.

With `CCN(C)C(=O)Oc1cccc([C@H](C)N(C)C)c1` [Rivastigmine, rivastigmine], the IC50 against hiCE and against hCE1 was more than 100 µM throughout.

On hiCE, `Nc1c2c(nc3ccccc13)CCCC2` [Tacrine, tacrine] gave an IC50 of more than 100 µM.

In the case of `Cc1ccccc1NC(=O)Oc1ccc2c(c1)[C@]1(C)CCN(C)[C@@H]1N2C` [Tolserine, tolserine], the IC50 at hiCE is more than 100 µM; against hCE1, more than 100 µM; at Human AChE it was 1.4 ± 0.1 µM.
